According to patent US6759509B1, “Branched peptide linkers” (Bristol-Myers Squibb Company, priority 1996, dated 2004):

Assay: decomposition of the isolated drug/linker in solution
Assay type: physicochemical
Settings: by HPLC for Example 31
Experimental: A solution of MEt-IDA-(Phe-Lys(Mtr)-PABC-MMC)2 30 (134.6 mg, 0.0590 mmol) in methylene chloride (3 mL) at rt was treated with anisole (1.28 mL, 200 equiv) and 1 M chloroacetic acid in methylene chloride (1.18 mL, 20 equiv). After 3.5 h ethyl acetate (30 mL) was added. The resulting purple solid was collected by filtration, washed with ethyl acetate and air-dried (97.8 mg, 82%). […] MS (FAB) 1738.3 (M+Na)^+, 1776.4 (M+K)^+.
MEt-IDA-(Phe-Lys(Mtr)-PABC-7-Paclitaxel)2 33 (333.0 mg, 0.0861 mmol) in methylene chloride (3 mL) was treated with anisole (1.87 mL, 200 equiv) and 1 M chloroacetic acid in methylene chloride (1.72 mL, 20 equiv). After 4 h the mixture was diluted with ether (30 mL). The resulting suspension was sonicated for several minutes and then the solid was collected by filtration and washed with ether (256.3 mg, 97%). […] MS (ESI) 2778.2 (MH)^+.

For “MEt-IDA-(Phe-Lys-PABC-MMC)2.2Cl2CHCO2H [Example 31]”, the “stability of the product in solution” value was “appeared to decompose in solution to one product”.
